Laboratory results published in patent US20260364214A1, “MULTIVALENT FIBROBLAST ACTIVATION PROTEIN LIGANDS FOR TARGETED DELIVERY APPLICATIONS” (Philochem AG, priority 2022, published 2026).

System: SK-RC-52.hFAP tumors
Test: Quantitative biodistribution in SK-RC-52.hFAP tumor bearing mice
Format: in vivo, mouse (female athymic Balb/c AnNRj-Foxn1)
Settings: i.v. 250 nmol/kg, 50 MBq/kg
Method: SK-RC-52.hFAP were grown to 80% confluence in RPMI-1640 with 10% fetal bovine serum (FBS) and 1% antibiotic-antimycotic and detached with Trypsin-EDTA (ethylenediaminetetraacetic acid) 0.05%. Tumor cells were resuspended in Hanks' Balanced Salt Solution medium. Aliquots of 5 million cells (100 μL of suspension) were injected subcutaneously in the right flank of female athymic Balb/c AnNRj-Foxn1 mice (6 to 8 wk of age).
Radiolabeling of ESV6-DOTAGA, Bi-ESV6-DOTAGA, Tri-ESV6-DOTAGA, Tetra-ESV6-DOTAGA, Hexa-ESV6-DOTAGA, Octa-ESV6-DOTAGA and FAP-2286 with lutetium-177 (a therapeutic radionuclide) was performed with different specific activities for three different studies (biodistribution, therapy and dose optimization).
Prior to the biodistribution study, precursors (100 nmol) were dissolved in 100 μL of milliQ water and diluted with 200 μL of sodium acetate (1 M in water, pH=4.5). 20 MBq of ^177Lu solution were added and the mixture was heated at 90 °C for 10 minutes, followed by dilution with […] of PBS to achieve final volume of 2 mL (20 doses of 100 μL each).
ESV6-DOTAGA, Bi-ESV6-DOTAGA, Tri-ESV6-DOTAGA, Tetra-ESV6-DOTAGA, Hexa-ESV6-DOTAGA, Octa-ESV6-DOTAGA and FAP-2286 were radiolabeled with ^177Lu as described above. Tumors were allowed to grow to an average volume of 300 mm^3. Mice were randomized and injected intravenously with radiolabeled preparations of ^177Lu-ESV6, ^177Lu-Bi-ESV6, ^177Lu-Tri-ESV6, Tetra-ESV6-DOTAGA, Hexa-ESV6-DOTAGA, Octa-ESV6-DOTAGA or ^177Lu-FAP-2286 (250 nmol/kg; 50 MBq/kg). Mice were euthanized at different time-points after the intravenous injection by CO2 asphyxiation. Tumors, organs, and blood were collected, weighted, and radioactivity was measured with a Packard Cobra Gamma Counter. Values are expressed as percent ID/g±SD [FIG. 4]. The % ID/g in the tumors was corrected considering the SK-RC-52.hFAP tumor growth rate.
Quantitative in vivo biodistribution of ^177Lu-ESV6-DOTAGA, ^177Lu-Bi-ESV6-DOTAGA, ^177Lu-Tri-ESV6-DOTAGA, ^177Lu-FAP-2286, Tetra-ESV6-DOTAGA, Hexa-ESV6-DOTAGA and Octa-ESV6-DOTAGA at different time points after intravenous administration (250 nmol/kg, 50 MBq/kg) in mice bearing SK-RC-52.hFAP tumors, are shown in Tables 1 to 4 and 10 to 12. Data are reported as % ID/g±standard deviation.
Tumor-to-organ ratios of ^177Lu-ESV6-DOTAGA, ^177Lu-Bi-ESV6-DOTAGA, ^177Lu-Tri-ESV6-DOTAGA, ^177Lu-FAP-2286, Tetra-ESV6-DOTAGA, Hexa-ESV6-DOTAGA and Octa-ESV6-DOTAGA, at different time points after intravenous administration (250 nmol/kg, 50 MBq/kg) in mice bearing SK-RC-52.hFAP tumors, are shown in Tables 5 to 8 and 13 to 15. Avg.=average; Std.d=standard deviation.

`N#C[C@@H]1CC(F)(F)CN1C(=O)CNC(=O)c1ccnc2c(NC(=O)CCC(=O)NCCNC(=O)CCOCC(COCCC(=O)NCCNC(=O)CCC(=O)Nc3cccc4c(C(=O)NCC(=O)N5CC(F)(F)C[C@H]5C#N)ccnc34)(COCCC(=O)NCCNC(=O)CCC(=O)Nc3cccc4c(C(=O)NCC(=O)N5CC(F)(F)C[C@H]5C#N)ccnc34)NC(=O)CCOCC(COCCC(=O)NC(COCCC(=O)NCCNC(=O)CCC(=O)Nc3cccc4c(C(=O)NCC(=O)N5CC(F)(F)C[C@H]5C#N)ccnc34)(COCCC(=O)NCCNC(=O)CCC(=O)Nc3cccc4c(C(=O)NCC(=O)N5CC(F)(F)C[C@H]5C#N)ccnc34)COCCC(=O)NCCNC(=O)CCC(=O)Nc3cccc4c(C(=O)NCC(=O)N5CC(F)(F)C[C@H]5C#N)ccnc34)NC(=O)CCC(C(=O)O)N3CCN(CC(=O)[O-])CCN(CC(=O)[O-])CCN(CC(=O)[O-])CC3)cccc12.[177Lu+3]` (stereo partly drawn) [^177Lu-Hexa-ESV6-DOTAGA] was tested, and the “Tumor to organs ratio, Blood” value (6 h) was 7.84, the “Injected dose per gram, Blood” value (6 h post injection) was 0.36 % ID/g and the “Tumor to organs ratio, Blood” value (24 h) was 17.77. The “Injected dose per gram, Blood” value (24 h post injection) was 0.10 % ID/g, the “Tumor to organs ratio, Blood” value (96 h) was 85.06 and the “Injected dose per gram, Blood” value (96 h post injection) was 0.02 % ID/g. The “Tumor to organs ratio, Heart” value (6 h) was 8.50, the “Injected dose per gram, Heart” value (6 h post injection) was 0.33 % ID/g and the “Tumor to organs ratio, Heart” value (24 h) was 7.90. For the same compound, the “Injected dose per gram, Heart” value (24 h post injection) was 0.23 % ID/g, the “Tumor to organs ratio, Heart” value (96 h) was 8.99 and the “Injected dose per gram, Heart” value (96 h post injection) was 0.16 % ID/g. The “Tumor to organs ratio, Intestine” value (6 h) was 13.86, the “Injected dose per gram, Intestine” value (6 h post injection) was 0.24 % ID/g and the “Tumor to organs ratio, Intestine” value (24 h) was 20.76. The “Injected dose per gram, Intestine” value (24 h post injection) was 0.10 % ID/g, the “Tumor to organs ratio, Intestine” value (96 h) was 20.47 and the “Injected dose per gram, Intestine” value (96 h post injection) was 0.07 % ID/g. The “Tumor to organs ratio, Kidney” value (6 h) was 5.24, the “Injected dose per gram, Kidney” value (6 h post injection) was 0.53 % ID/g and the “Tumor to organs ratio, Kidney” value (24 h) was 3.37. For the same compound, the “Injected dose per gram, Kidney” value (24 h post injection) was 0.57 % ID/g, the “Tumor to organs ratio, Kidney” value (96 h) was 0.99 and the “Injected dose per gram, Kidney” value (96 h post injection) was 1.37 % ID/g. The “Tumor to organs ratio, Liver” value (6 h) was 0.04, the “Injected dose per gram, Liver” value (6 h post injection) was 62.54 % ID/g and the “Tumor to organs ratio, Liver” value (24 h) was 0.03. The “Injected dose per gram, Liver” value (24 h post injection) was 53.45 % ID/g, the “Tumor to organs ratio, Liver” value (96 h) was 0.03 and the “Injected dose per gram, Liver” value (96 h post injection) was 49.80 % ID/g. For the same compound, the “Tumor to organs ratio, Lung” value (6 h) was 0.43, the “Injected dose per gram, Lung” value (6 h post injection) was 6.91 % ID/g and the “Tumor to organs ratio, Lung” value (24 h) was 0.34. For the same compound, the “Injected dose per gram, Lung” value (24 h post injection) was 5.33 % ID/g, the “Tumor to organs ratio, Lung” value (96 h) was 1.10 and the “Injected dose per gram, Lung” value (96 h post injection) was 1.38 % ID/g. For the same compound, the “Tumor to organs ratio, Muscle” value (6 h) was 9.52, the “Injected dose per gram, Muscle” value (6 h post injection) was 0.66 % ID/g and the “Tumor to organs ratio, Muscle” value (24 h) was 13.70. The “Injected dose per gram, Muscle” value (24 h post injection) was 0.14 % ID/g, the “Tumor to organs ratio, Muscle” value (96 h) was 35.84 and the “Injected dose per gram, Muscle” value (96 h post injection) was 0.05 % ID/g. For the same compound, the “Tumor to organs ratio, Spleen” value (6 h) was 0.07, the “Injected dose per gram, Spleen” value (6 h post injection) was 41.26 % ID/g and the “Tumor to organs ratio, Spleen” value (24 h) was 0.04. The “Injected dose per gram, Spleen” value (24 h post injection) was 47.44 % ID/g, the “Tumor to organs ratio, Spleen” value (96 h) was 0.04 and the “Injected dose per gram, Spleen” value (96 h post injection) was 38.61 % ID/g. For the same compound, the “Tumor to organs ratio, Tail” value (6 h) was 4.76, the “Injected dose per gram, Tail” value (6 h post injection) was 0.70 % ID/g and the “Tumor to organs ratio, Tail” value (24 h) was 1.39. For the same compound, the “Injected dose per gram, Tail” value (24 h post injection) was 1.65 % ID/g, the “Tumor to organs ratio, Tail” value (96 h) was 2.03 and the “Injected dose per gram, Tail” value (96 h post injection) was 1.02 % ID/g. For the same compound, the “Injected dose per gram, Tumor” value (6 h post injection) was 2.77 % ID/g, the “Injected dose per gram, Tumor” value (24 h post injection) was 1.80 % ID/g and the “Injected dose per gram, Tumor” value (96 h post injection) was 1.36 % ID/g.
